Patent EP1856102B1, “MEDICAMENTS FOR ALZHEIMER” (Tseti, Ioulia, priority 2005, dated 2006)
Marks after values point to notes of the source that are not given here.

Legend:
female Fischer-344 rats = details: s.c. once daily for 4 days, dose 84 µM/kg (Indomethacin, 1, 2, 3) or 1350 µM/kg (Naproxen, 4, 5); for Perforating ulcers (%): % of animals which developed perforating ulcers; for Mortality (%): (dead/total) x 100, recorded 24 h after last treatment
Experimental: Equimolar doses of the parent NSAIDs and the respective derivatives were administered s.c. once daily for 4 days to female Fischer-344 rats (160-180g). The used dose was ca LD50 of the parent NSAID. The incidence of perforating gastrointestinal ulcers, body weight change, melena and mortality were recorded 24 h after the last treatment. […] Table 3: Gastrointestinal toxicity of indomethacin, naproxen and some novel derivatives in rats

[1] = system: lipid peroxidation of hepatic microsomal fraction; assay: In vitro lipid peroxidation (TBA reactive material); format: biochemical, Fischer-344 rats; details: at 45 min, 37°C; heat inactivated rat hepatic microsomal fraction, FeSO4/ascorbic acid
Experimental: Hepatic microsomal fraction from untreated Fischer-344 rats was prepared. The incubation mixture contained heat inactivated (90°C for 90 sec) hepatic microsomal fraction, corresponding to 2.5 mg protein/ml (fmal concentration) or 4 mmol/L fatty acid residues, ascorbic acid (0.2 mmol/L) in Tris-HCl/KCl buffer (50 mmol/L / 150mmol/L, pH 7.4) and various concentrations (1-0.05 mmol/L) of the test compounds dissolved in dimethylsulfoxide (DMSO). The reaction was started by the addition of a freshly prepared FeSO4 solution (10 µM/L) and the mixture was incubated at 37°C for 45 min. Aliquots (0.3mL) from the incubation mixture were taken at various time intervals. Lipid peroxidation was assessed spectrophotometrically (535 against 600 nm) by the determination of the TBA reactive material. Under the above experimental conditions, all compounds, as well as DMSO, were tested and found not to interfere with the assay. Each experiment was performed at least in triplicate.

[2] = system: tyloxapol-induced hyperlipidemia; assay: Tyloxapol-induced hyperlipidemia in rats; format: in vivo; details: 56µmol/kg i.p. once, 24 h later, tyloxapol 200 mg/kg i.p.; for % decrease LDL: plasma LDL-cholesterol; for % decrease TC: plasma total cholesterol; for % decrease TG: plasma triglyceride
Experimental: The hypocholesterolemic and hypolipidemic activity of the test compounds was assessed in vivo by the inhibition of tyloxapol-induced hyperlipidemia (200 mg/kg i.p.) in rats. The novel NSAID derivatives were administered (56µmol/kg, i.p., once) to hypercholesterolemic rats and 24 h later the plasma total cholesterol (TC), LDL and triglyceride (TG) concentrations were determined in blood taken from the aorta. […] Table 6: Effect of the test compounds on plasma total cholesterol, triglyceride and LDL-cholesterol levels of hyperlipidemic rats

[3] = system: FCA-induced experimental arthritis in rats; assay: Adjuvant-induced disease (FCA-induced experimental arthritis); format: in vivo, female Fischer-344 rats; details: 0.3-0.6 mmol/kg i.p. once daily for 14 days; in comparison to non treated AID rats
Experimental: Adjuvant-induced disease (AID) was induced via i.d. injection of Freund's complete adjuvant (0.1 ml of FCA) in the foot pad of the right hind paw of female Fischer-344 rats. The compounds under study were dissolved or suspended in water containing a few drops of Tween 80 and were administered i.p. (0.3-0.6 mmol/kg) once daily for 14 days. In order to observe the progress of local inflammatory reaction, the change in swelling of paw with adjuvant treatment was evaluated by allocation of points (inflammatory score) on an arbitrary scale, while for the quantification of arthritis the arthritic score was recorded.
Table 2: Effect of the test compounds on FCA-induced experimental arthritis in rats

[4] = Interaction with the stable free radical DPPH; details: DPPH 0.2 mmol/L in ethanol, room temperature, 45 min
Experimental: The test compounds were dissolved in absolute ethanol (analytical grade, iron content was less than 10^-3 (w/v), added to an equal volume of an ethanolic solution of DPPH (final concentration 0.2 mmol/L) at various concentrations (0.1 and 0.2 mmol/L) and kept at room temperature. Absorbance (517 nm) was recorded at 45 min. Each experiment was performed at least in triplicate. Table 5: % Interaction of the test compounds with the stable free radical DPPH

[5] = system: carrageenan-induced edema of the rat hind paw; assay: Carrageenan-induced edema of the rat hind paw; format: in vivo, female Fischer-344 rats; details: 0.3mmol/kg i.p. immediately after carrageenan; paws weighed 3.5 h later; edema suppression in comparison to controls
Experimental: Edema was induced via i.d. injection of carrageenan (0.1 ml of a 2% w/v aqueous solution) into the right hind paw of female Fischer-344 rats (200-220g) (the left paw serving as control). The compounds under study were dissolved or suspended in water containing a few drops of Tween 80 and were administered i.p. (0.3mmol/kg) immediately after the carrageenan injection. The mice were euthanazed 3.5 h later, both hind paws were severed above the ankle joint and weighted separately. For each animal the swelling caused by the phlogistic was given as percentage of weight increase of right hind paw in comparison to the uninjected left hind paw, and from that, the percentage of edema suppression in comparison to controls was calculated. The parent anti-inflammatory acids (at the same molar concentrations) were used as reference compounds, in addition to the absolute control. […] Table 1: Effect of the test compounds on carrageenan-induced edema of the rat hind paw

| Structure (SMILES) | Perforating ulcers (%) (female Fischer-344 rats) | Mortality (%) (female Fischer-344 rats) | Body weight change (female Fischer-344 rats) | IC50 [1] [µM] | % decrease LDL [2] | % decrease TC [2] | % decrease TG [2] | % Inhibition of experimental arthritis [3] [%] | % Interaction with the stable free radical DPPH ([4]; compound 0.2mM) [%] | % Interaction with the stable free radical DPPH ([4]; compound 0.1mm) [%] | % Edema inhibition [5] [%] |
| --- | --- | --- | --- | --- | --- | --- | --- | --- | --- | --- | --- |
| CCOC(=O)C(CS)NC(=O)C1CCCN1C(=O)C(C)c1ccc2cc(OC)ccc2c1 (stereo not drawn) [Compound 5] | 0 | 0 | +1.5 g/100 body weight | 320 | 55* % | 58** % | 68.7** % | 100 | 85 | 65 | 30 |
| COc1ccc2c(c1)c(CC(=O)N1CCCC1C(=O)Oc1ccc(C)cc1OC)c(C)n2C(=O)c1ccc(Cl)cc1 (stereo not drawn) [Compound 3, 1-{2-[1-(4-Chloro-benzoyl)-5-methoxy-2-methyl-1-H-indol-3-yl]-acetyl}-pyrrolidine-2-carboxylic acid-2-methoxy-4-methyl-phenyl ester] | 0 | 0 | +11.1 g/100 body weight |  |  |  |  |  |  |  |  |
| CCOC(=O)C(CS)NC(=O)C1CC(O)CN1C(=O)C(C)c1ccc2cc(OC)ccc2c1 (stereo not drawn) [Compound 8] |  |  |  | 500 | 56.5* % | 35.5% | 25% |  | 75 | 55 |  |
| COc1ccc2cc(C(C)C(=O)N3CCCC3C(=O)Oc3ccc(C)cc3OC)ccc2c1 (stereo not drawn) [Compound 6, 1-[2-(6-methoxy-naphthalen-2-yl)-propionyl]-pyrrolidine-2-carboxylic acid 2-methoxy-4-methyl phenyl ester] |  |  |  |  |  |  |  |  |  |  | 20 |
| COc1ccc2cc([C@H](C)C(=O)O)ccc2c1 [Naproxen, reference compound] |  | 50 |  |  |  |  |  |  |  |  | 45 |
| COc1ccc2cc(C(C)C(=O)N3CCCC3C(=O)NCCS)ccc2c1 (stereo not drawn) [Compound 4, 1-[2-(6-methoxy-naphthalen-2-yl)-propionyl]-pyrrolidine-2-carboxylic acid-(2-mercapto-ethyl) amide] |  |  |  |  |  |  |  | 30 | 78 | 57 | 30 |
| CCOC(=O)C(CS)NC(=O)C1CCCN1C(=O)Cc1c(C)n(C(=O)c2ccc(Cl)cc2)c2ccc(OC)cc12 (stereo not drawn) [Compound 2, 2-[(1-{2-[1-(4-Chloro-benzoyl)-5-methoxy-2-methyl-1-H-indol-3-yl]-acetyl}-pyrrolidine-2-carbonyl)-amino]-3-mercapto-propionic acid ethyl ester] | 0 | 0 | +3.9 g/100 body weight | 390 |  |  |  | 75 | 70 | 44 | 20 |
| COc1ccc2c(c1)c(CC(=O)O)c(C)n2C(=O)c1ccc(Cl)cc1 [Indomethacin, reference compound] |  | 50 |  |  |  |  |  |  |  |  | 47.8 |
| COc1ccc2c(c1)c(CC(=O)N1CCCC1C(=O)NCCS)c(C)n2C(=O)c1ccc(Cl)cc1 (stereo not drawn) [Compound 1, 1-{2-[1-(4-Chloro-benzoyl)-5-methoxy-2-methyl-1-H-indol-3-yl]-acetyl}-pyrrolydine-2-carboxylic acid (2-mercapto-ethyl) amide] | 0 | 0 | +1.3 g/100 body weight |  |  |  |  | 50 |  |  | 23 |
| CCOC(=O)C(CS)NC(=O)C1CCCCN1C(=O)C(C)c1ccc2cc(OC)ccc2c1 (stereo not drawn) [Compound 9] |  |  |  | 122 | 52* % | 40% | 21.3% |  | 76 | 46 |  |
| COc1ccc2cc(C(C)C(=O)N3CC(O)CC3C(=O)NCCS)ccc2c1 (stereo not drawn) [Compound 7, 4-Hydroxy-1-[2-(6-methoxy-naphthalen-2-yl)-propionyl]-pyrrolidine-2-carboxylic acid-(2-mercapto-ethyl) amide] |  |  |  |  | 53.5 * % | 45* % | 51% |  | 56 | 34 | 31 |
